In patent US20240293447A1, “Materials and Methods for Prevention and Treatment of Diarrhea and Inflammation in the Gastrointestinal Tract” (University of Florida Research Foundation, Inc., priority 2012, published 2024):

System: colitis in mice
Experiment: Colitis in mice (dextran sulfate sodium (DSS)-induced colitis) after CaSR-activating nutrients
Type: in vivo
Conditions: three-to-six-week-old mice received CaSR-activating nutrients (calcium, spermine, tryptophan, cinacalcet); figure legends only
Method: Briefly, three-to-six-week-old, pre-pubertal rats and mice (WT v. villin/cre-floxed CaSR) received antigens or CaSR-activating nutrients (calcium, spermine, tryptophan, and cinacalcet). After treatment, mice and rats were sacrificed, and epithelial barrier, cytokine expression, dendritic cell, T cell, and B cell activation, and response to inflammatory stress were determined (FIG. 2).

C[C@@H](NCCCc1cccc(C(F)(F)F)c1)c1cccc2ccccc12 [cinacalcet]
effect on colitis: can be used to treat colitis
